# Residue numbers refer to the chain shown, from its start. Counter-ions that a name gives are not always drawn.
# Key:
# [1] = molecular target: T1, MRGPRX2-WT (wild-type MRGPRX2 receptor) (Homo sapiens, UniProt Q96LB1); test: Primary HTS, Ca2+ mobilization (fluorescence ratio, B-score) in HEK293-Gα15 cells stably expressing wild-type MRGPRX2; type: cell-based; conditions: 10 μM compound
# T1 construct: expressed in transfected cells
# T1 sequence (Q96LB1 1-330): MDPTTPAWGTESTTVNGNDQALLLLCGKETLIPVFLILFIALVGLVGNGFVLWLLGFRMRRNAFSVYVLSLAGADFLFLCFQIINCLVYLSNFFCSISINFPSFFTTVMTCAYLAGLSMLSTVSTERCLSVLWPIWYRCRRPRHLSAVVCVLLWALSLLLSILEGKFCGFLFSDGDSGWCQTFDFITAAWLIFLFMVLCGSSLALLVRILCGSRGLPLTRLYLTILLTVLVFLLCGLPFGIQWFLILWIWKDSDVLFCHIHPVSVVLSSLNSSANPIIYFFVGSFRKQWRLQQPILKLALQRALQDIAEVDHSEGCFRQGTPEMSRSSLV
# Experimental: (§1) We performed an experimental HTS on the Johns Hopkins Drug Library, which includes 1,811 (57%) FDA-approved drugs among 3,456 total compounds (28% of all known drugs worldwide) ([15]). We performed the HTS at the Johns Hopkins University ChemBioCORE Facility and employed HEK293-Gα15 cell lines that stably expressed MRGPRX2 protein.
# (§2) We utilized 10 μM compounds (each compound was tested in triplicate) and calculated the compound effect using the signal-to-background fluorescence ratio (see Supplementary Methods).
# (§3) In the HTS, we determined MRGPRX2 activation by a Ca^2+ mobilization assay that recorded a fluorescence change by utilizing a Functional Drug Screening System (FDSS 6000; Hamamatsu); we evaluated the compound effect using the calculated fluorescence ratio. We further applied the B-score normalization, which provided robust corrections for variation in fluorescence ratio ([22]).
# (§4) We performed an experimental high-throughput screening (HTS) on the Johns Hopkins Drug Library (JHDL), which includes 1,811 (57%) FDA-approved drugs among 3,456 total compounds (28% of all known drugs worldwide). The remaining compounds in JHDL are catalogued in one or more of the resources below: British Approved Names (BAN); Dénominations Communes Françaises (DCF); International Nonproprietary Names (INN); Japanese Adopted Names (JAN); MI (Merck Index); National Formulary drug name (NF); and United States Accepted Names (USAN). The JHU drug library is stocked in 96 well plates at 10 mM in 100% DMSO and stored at -80 °C. We used a final concentration of 10 uM for each compound and DMSO concentration of 0.1% (tested in triplicate). […] We evaluated compound effect using the calculated fluorescence ratio. We further calculated B-scores, which are a relative potency score similar to Z scores in that they are the ratio of an adjusted raw value in the numerator to a measure of variability in the denominator.
# [2] = molecular target: T2, MRGPRX2-MUT (MRGPRX2 N62S mutation) (Homo sapiens, UniProt Q96LB1, N62S); test: Primary HTS, Ca2+ mobilization (fluorescence ratio, B-score) in HEK293-Gα15 cells stably expressing the MRGPRX2 N62S mutation; type: cell-based; conditions: for B-scores (MUT): 10 μM compound, MRGPRX2-MUT (N62S) cells; for Change of B-scores (%): 10 μM
# T2 construct: expressed in transfected cells
# T2 sequence (Q96LB1 1-330 N62S): T1 sequence (Q96LB1 1-330) with N62S
# Experimental: as §1, §2, §3, §4
# [3] = MRGPRX2-MUT in comparison to MRGPRX2-WT cells, Supplementary Table 1
# [4] = MRGPRX2-MUT in comparison to MRGPRX2-WT cells, Table 1
# [5] = MRGPRX2-MUT versus MRGPRX2-WT cells, Supplementary Table 2
# [6] = Supplementary Table 2, listed as Dextromethorphan (Delsym)
smiles,measurement,setting,value
CC(=O)O.CC(=O)O.CC[C@H](C)C[C@H](C)CCCCCCCCC(=O)N[C@H]1C[C@@H](O)[C@@H](NCCN)NC(=O)[C@@H]2[C@@H](O)CCN2C(=O)[C@H]([C@H](O)CCN)NC(=O)[C@H]([C@H](O)[C@@H](O)c2ccc(O)cc2)NC(=O)[C@@H]2C[C@@H](O)CN2C(=O)[C@H]([C@@H](C)O)NC1=O [Caspofungin acetate],B-scores (WT),[1]; Supplementary Table 1,29.98
same,B-scores (MUT),[2]; Supplementary Table 1,16.90
same,Change of B-scores (%),[2]; [3],-43.63%
COc1ccc2cc1Oc1ccc(cc1)C[C@H]1c3c(cc4c(c3Oc3cc5c(cc3OC)CCN(C)[C@@H]5C2)OCO4)CCN1C [Cepharanthine],B-scores (WT),[1]; Supplementary Table 1,19.73
same,B-scores (WT),[1]; Table 1,19.73
same,B-scores (MUT),[2]; Supplementary Table 1,1.14
same,B-scores (MUT),[2]; Table 1,1.14
same,Change of B-scores (%),[2]; [3],-94.20%
same,Change of B-scores (%),[2]; [4],-94.20%
CN(C)CCN(Cc1ccc(Cl)cc1)c1ccccn1.Cl [Chloropyramine Hydrochloride],B-scores (WT),[1]; Supplementary Table 2,14.6
same,B-scores (MUT),[2]; Supplementary Table 2,3.24
same,Change of B-scores (%),[2]; [5],-77.83%
CN(C)CCC(c1ccc(Cl)cc1)c1ccccn1 (centres unmarked) [Chlorpheniramine],B-scores (WT),[1]; Supplementary Table 2,9.6
same,B-scores (MUT),[2]; Supplementary Table 2,0.88
same,Change of B-scores (%),[2]; [5],-90.88%
CN(C)CCCN1c2ccccc2Sc2ccc(Cl)cc21 [Chlorpromazine Hydrochloride],B-scores (WT),[1]; Supplementary Table 2,7.97
same,B-scores (MUT),[2]; Supplementary Table 2,2.69
same,Change of B-scores (%),[2]; [5],-66.27%
CN(C)CCCN1c2ccccc2Sc2ccc(Cl)cc21 [Chlorpromazine],B-scores (WT),[1]; Supplementary Table 2,10.2
same,B-scores (MUT),[2]; Supplementary Table 2,-0.05
same,Change of B-scores (%),[2]; [5],-100.54%
O=C(O)c1cn(C2CC2)c2cc(N3CCNCC3)c(F)cc2c1=O [Ciprofloxacin],B-scores (WT),[1]; Supplementary Table 2,7.33
same,B-scores (MUT),[2]; Supplementary Table 2,1.91
same,Change of B-scores (%),[2]; [5],-74%
Cl.NC1CCN(c2c(F)cc3c(=O)c(C(=O)O)cn(C4CC4)c3c2Cl)C1 (centres unmarked) [Clinafoxacin Hydrochloride],B-scores (WT),[1]; Supplementary Table 1,26.08
same,B-scores (WT),[1]; Table 1,26.08
same,B-scores (MUT),[2]; Supplementary Table 1,0.92
same,B-scores (MUT),[2]; Table 1,0.92
same,Change of B-scores (%),[2]; [3],-96.48%
same,Change of B-scores (%),[2]; [4],-96.48%
CN(C)CCCN1c2ccccc2CCc2ccc(Cl)cc21 [Clomipramine Hydrochloride],B-scores (WT),[1]; Supplementary Table 1,30.29
same,B-scores (WT),[1]; Supplementary Table 2,30.29
same,B-scores (WT),[1]; Table 1,30.29
same,B-scores (MUT),[2]; Supplementary Table 1,2.17
same,B-scores (MUT),[2]; Supplementary Table 2,2.17
same,B-scores (MUT),[2]; Table 1,2.17
same,Change of B-scores (%),[2]; [3],-92.83%
same,Change of B-scores (%),[2]; [4],-92.83%
same,Change of B-scores (%),[2]; [5],-92.83%
C=C[C@@]1(C)CC(=O)[C@]2(O)[C@@]3(C)[C@@H](O)CCC(C)(C)[C@@H]3[C@H](O)[C@H](OC(C)=O)[C@@]2(C)O1 [Colforsin],B-scores (WT),[1]; Supplementary Table 1,21.10
same,B-scores (MUT),[2]; Supplementary Table 1,0.76
same,Change of B-scores (%),[2]; [3],-96.40%
C[C@@H](Oc1cc(-c2cnn(C3CCNCC3)c2)cnc1N)c1c(Cl)ccc(F)c1Cl [Crizotinib],B-scores (WT),[1]; Supplementary Table 1,22.06
same,B-scores (WT),[1]; Table 1,22.06
same,B-scores (MUT),[2]; Table 1,-0.44
same,Change of B-scores (%),[2]; [3],-101.99%
same,Change of B-scores (%),[2]; [4],-101.99%
CN(C)CCC=C1c2ccccc2C=Cc2ccccc21 [Cyclobenzaprine Hydrochloride],B-scores (WT),[1]; Supplementary Table 2,16.49
same,B-scores (MUT),[2]; Supplementary Table 2,1.22
same,Change of B-scores (%),[2]; [5],-92.62%
CN1CCC(=C2c3ccccc3C=Cc3ccccc32)CC1 [Cyproheptadine Hydrochloride],B-scores (WT),[1]; Supplementary Table 1,41.66
same,B-scores (WT),[1]; Table 1,41.66
same,B-scores (MUT),[2]; Supplementary Table 1,2.29
same,B-scores (MUT),[2]; Table 1,2.29
same,Change of B-scores (%),[2]; [3],-94.50%
same,Change of B-scores (%),[2]; [4],-94.50%
CO[C@@H](C(=O)N1Cc2n[nH]c(NC(=O)c3ccc(N4CCN(C)CC4)cc3)c2C1)c1ccccc1 [Danusertib],B-scores (WT),[1]; Supplementary Table 1,20.37
same,B-scores (WT),[1]; Table 1,20.37
same,B-scores (MUT),[2]; Supplementary Table 1,0.61
same,B-scores (MUT),[2]; Table 1,0.61
same,Change of B-scores (%),[2]; [3],-97.00%
same,Change of B-scores (%),[2]; [4],-97.00%
COc1cccc2c1C(=O)c1c(O)c3c(c(O)c1C2=O)C[C@@](O)(C(C)=O)C[C@@H]3O[C@H]1C[C@H](N)[C@H](O)[C@H](C)O1 [Daunorubicin],B-scores (WT),[1]; Supplementary Table 2,8.85
same,B-scores (MUT),[2]; Supplementary Table 2,37.13
same,Change of B-scores (%),[2]; [5],319.41%
CNCCCN1c2ccccc2CCc2ccccc21 [Desipramine Hydrochloride],B-scores (WT),[1]; Supplementary Table 2,7.48
same,B-scores (MUT),[2]; Supplementary Table 2,-2.96
same,Change of B-scores (%),[2]; [5],-139.62%
CNCCCN1c2ccccc2CCc2ccccc21 [Desipramine],B-scores (WT),[1]; Supplementary Table 2,13.96
same,B-scores (MUT),[2]; Supplementary Table 2,1.19
same,Change of B-scores (%),[2]; [5],-91.45%
CN(C)CC[C@@H](c1ccc(Cl)cc1)c1ccccn1 [Dexchlorpheniramine Maleate],B-scores (WT),[1]; Supplementary Table 1,24.82
same,B-scores (WT),[1]; Supplementary Table 2,24.82
same,B-scores (WT),[1]; Table 1,24.82
same,B-scores (MUT),[2]; Supplementary Table 1,0.56
same,B-scores (MUT),[2]; Supplementary Table 2,0.56
same,B-scores (MUT),[2]; Table 1,0.56
same,Change of B-scores (%),[2]; [3],-97.76%
same,Change of B-scores (%),[2]; [4],-97.76%
same,Change of B-scores (%),[2]; [5],-97.76%
Br.COc1ccc2c(c1)[C@]13CCCC[C@@H]1[C@H](C2)N(C)CC3.O [Dextromethorphan Hydrobromide Monohydrate],B-scores (WT),[1]; Supplementary Table 1,23.02
same,B-scores (MUT),[2]; Supplementary Table 1,54.88
same,Change of B-scores (%),[2]; [3],138.39%
COc1ccc2c(c1)[C@]13CCCC[C@@H]1[C@H](C2)N(C)CC3 [Dextromethorphan hydrobromide],B-scores (WT),[1]; Supplementary Table 1,38.47
same,B-scores (WT),[1]; Supplementary Table 2,23.02
same,B-scores (WT),[1]; [6],38.47
same,B-scores (MUT),[2]; Supplementary Table 1,84.34
same,B-scores (MUT),[2]; Supplementary Table 2,54.88
same,B-scores (MUT),[2]; [6],84.34
same,Change of B-scores (%),[2]; [3],119.23%
same,Change of B-scores (%),[2]; [5],138.39%
same,Change of B-scores (%),"[2]; MRGPRX2-MUT versus MRGPRX2-WT cells, Supplementary Table 2, listed as Dextromethorphan (Delsym)",119.23%
CN1CC[C@@]23CCCC[C@@H]2[C@@H]1Cc1ccc(O)cc13 [Dextrorphan],B-scores (WT),[1]; Supplementary Table 2,31.94
same,B-scores (MUT),[2]; Supplementary Table 2,68.33
same,Change of B-scores (%),[2]; [5],113.94%

# Source: paper PMC9635925, “Biological screening of a unique drug library targeting MRGPRX2” (Frontiers in Immunology, 2022)
